Results taken from ChEMBL document CHEMBL1156732, “Identification of SVM-based classification model, synthesis and evaluation of prenylated flavonoids as vasorelaxant agents” (Bioorg Med Chem, 2008).

Legend:
Aorta [1] = assay: Vasorelaxant activity against phenylephrine-induced contraction in Sprague-Dawley rat aorta; assay type: functional, tissue-based
Aorta [2] = assay: Vasorelaxant activity against phenylephrine-induced contraction in Sprague-Dawley rat aorta relative to phenylephrine; assay type: functional

Row | EC50 (Aorta [1]) [µM] | SMILES | Emax (Aorta [2]) [%]
1 | 5.79 | CC(C)=CCc1c(O)cc(O)c2c1OC(c1ccccc1)CC2=O (racemic) | 122
2 | 1.56 | CC(C)=CCc1c(O)cc(O)c2c1OC(c1cccc(Br)c1)CC2=O (racemic) | 78.2
3 | 1.32 | CC(C)=CCc1c(O)cc(O)c2c1OC(c1ccc3c(c1)OCO3)CC2=O (racemic) | 77.3
4 | 10.1 | COc1cc(C2CC(=O)c3c(O)cc(O)c(CC=C(C)C)c3O2)ccc1O (racemic) | 95.8

Further lines, the compound ahead of its results:

Row | SMILES | EC50 (Aorta [1]) [µM] | Emax (Aorta [2]) [%]
5 | COc1cc(-c2cc(=O)c3c(O)cc(O)c(CC=C(C)C)c3o2)cc(OC)c1OC | 64.3 | 90.1
6 | COc1cc(/C=C/C(=O)c2c(O)cc(O)c(CC=C(C)C)c2O)cc(OC)c1OC |  | 78.5
7 | CC(C)=CCc1c(O)cc(O)c2c(=O)cc(-c3cccc(O)c3)oc12 |  | 64.6
8 | COc1cc(-c2cc(=O)c3c(O)cc(O)c(CC=C(C)C)c3o2)ccc1O | 49.3 | 70.6
9 | CC(C)=CCc1c(O)cc(O)c(C(=O)/C=C/c2ccc(Cl)cc2)c1O | 679 | 64.4
10 | CC(C)=CCc1c(O)cc(O)c(C(=O)/C=C/c2ccc3c(c2)OCO3)c1O | 4.21 | 90
11 | CC(C)=CCc1c(O)cc(O)c2c(=O)cc(-c3cccc(Br)c3)oc12 | 95.9 | 82.8
